The subject of this assay is BDF1 mice, M5076 sarcoma ip, median survival T/C. The assay is described as follows: NCI In Vivo Anticancer Drug Screen. Data for tumor model Sarcoma M5076 (intraperitoneal) in B6D2F1 (BDF1) mice. The following applies: endpoint: median survival time, higher = longer survival. The method, then: The antitumor activity of compounds was measured in mice bearing transplantable tumors. Survival or tumor size were measured and the results are expressed as the measurement made in the treated group (T) divided by the measurement made in the vehicle treated control group (C). The tumor model used in this assay is Sarcoma M5076 (intraperitoneal) in B6D2F1 (BDF1) mice

The mark [1] stands for this setting: dose: 25.0 mg/kg/injection, schedule: Q04DX004 (ip), vehicle: saline.
Where [2] appears, read: dose: 50.0 mg/kg/injection, schedule: Q04DX004 (ip), vehicle: saline.
[3] abbreviates: dose: 100.0 mg/kg/injection, schedule: Q04DX004 (ip), vehicle: saline.
The mark [4] stands for this setting: dose: 400.0 mg/kg/injection, schedule: Q04DX004 (ip), vehicle: saline.
[5] abbreviates: dose: 50.0 mg/kg/injection, schedule: Q04DX004 (ip), vehicle: saline with Tween-80.
[6] abbreviates: dose: 100.0 mg/kg/injection, schedule: Q04DX004 (ip), vehicle: saline with Tween-80.
Where [7] appears, read: dose: 1.56 mg/kg/injection, schedule: Q01DX009 (ip), vehicle: Klucel (hydroxypropylcellulose) (HPC).
Setting [8] is: dose: 3.12 mg/kg/injection, schedule: Q01DX009 (ip), vehicle: Klucel (hydroxypropylcellulose) (HPC).
The mark [9] stands for this setting: dose: 6.25 mg/kg/injection, schedule: Q01DX009 (ip), vehicle: Klucel (hydroxypropylcellulose) (HPC).
Setting [10] is: dose: 12.5 mg/kg/injection, schedule: Q01DX009 (ip), vehicle: Klucel (hydroxypropylcellulose) (HPC).
The mark [11] stands for this setting: dose: 0.75 mg/kg/injection, schedule: Q04DX005 (ip), vehicle: saline.
Where [12] appears, read: dose: 1.5 mg/kg/injection, schedule: Q04DX005 (ip), vehicle: saline.
[13] abbreviates: dose: 3.0 mg/kg/injection, schedule: Q04DX005 (ip), vehicle: saline.
[14] abbreviates: dose: 10.0 mg/kg/injection, schedule: Q01DX009 (ip), vehicle: Klucel (hydroxypropylcellulose) (HPC).

Values joined by “and” are separate entries in the source; they are usually repeats but may differ in a detail not shown here. Identical values can stand only once. Toxic doses and inconclusive results are not listed.

As to `COC1N(C2CC(O)C(CO)O2)C(=O)NC(=O)C1(F)Br` (stereo not drawn), the T/C under setting [1] is 110 % of control, the T/C under setting [2] is 115 % of control, the T/C under setting [3] was 116 % of control and the T/C under setting [4] was 124 % of control.
As for `COC(=O)NC1C(C)OC(OC2C/C=C(/C)C3C=CC4C(OC5CC(OC6CCC(OC7CC(O)C(OC8CCC(O)C(C)O8)C(C)O7)C(C)O6)C(OC(C)=O)C(C)O5)C(C)CC(C)C4C3(C)/C(O)=C3/C(=O)OC4(CC(C=O)=CC(O)C4/C=C\2C)C3=O)CC1(C)[N+](=O)[O-]` (stereo not drawn), the T/C reads like this: (dose: 2.5 mg/kg/injection, schedule: Q04DX004 (ip), vehicle: water) 107 % of control; (dose: 5.0 mg/kg/injection, schedule: Q04DX004 (ip), vehicle: water) 96 % of control; (dose: 10.0 mg/kg/injection, schedule: Q04DX004 (ip), vehicle: water) 103 % of control.
Turning to `CC(=O)C[n+]1ccc(C)cc1Sc1ccccc1C`, the T/C by setting is: (dose: 12.5 mg/kg/injection, schedule: Q04DX004 (ip), vehicle: saline with Tween-80) 104 % of control; (dose: 25.0 mg/kg/injection, schedule: Q04DX004 (ip), vehicle: saline with Tween-80) 98 % of control; under setting [5], 92 % of control; under setting [6], 94 % of control.
As to `CCC(C)C(N)C(=O)NC(CC(N)=O)C(=O)NC(CC(C)C)C(=O)NC(CCCCN)C(=O)NC(C)C(=O)NC(CC(C)C)C(=O)NC(C)C(=O)NC(C)C(=O)NC(CC(C)C)C(=O)NC(C)C(=O)NC(CCCCN)C(=O)NC(CCCCN)C(=O)NC(C(=O)NC(CC(C)C)C(N)=O)C(C)CC` (stereo not drawn), the T/C is, setting by setting: under setting [7], 95 % of control; under setting [8], 101 % of control; under setting [9], 96 % of control; under setting [10], 98 % of control.
In the case of `CN=C(N)N/N=C(\C)c1ccc2sc3ccc(/C(C)=N/NC(N)=NC)cc3c2c1`, the T/C is 113 % of control under setting [5]; 105 % of control under setting [6]; 119 % of control (dose: 200.0 mg/kg/injection, schedule: Q04DX004 (ip), vehicle: saline with Tween-80).
As for `C1CCC(NC2CCCCC2)CC1`, the T/C runs as follows: under setting [1], 102 % of control; under setting [2], 98 % of control; under setting [3], 100 % of control; (dose: 200.0 mg/kg/injection, schedule: Q04DX004 (ip), vehicle: saline) 105 % of control; under setting [4], 105 % of control.
As for `COc1cc2c(cc1OC)[C@@H]1C(=O)c3ccc4c(c3O[C@@H]1CO2)C[C@H](C(C)C)O4`, the T/C is, setting by setting: under setting [7], 112 % of control and 114 % of control; under setting [8], 110 % of control; under setting [9], 122 % of control; under setting [10], 124 % of control.
With `COc1cc(NCc2ccc3nc(N)nc(N)c3c2C)cc(OC)c1OC` (tested in a mixture with another compound), the T/C was 108 % of control (dose: 10.0 mg/kg/injection, schedule: Q04DX005 (ip), vehicle: water) and 120 % of control (dose: 40.0 mg/kg/injection, schedule: Q04DX005 (ip), vehicle: water).
As to `CC[C@]1(O)C[C@H]2CN(CCc3c([nH]c4ccccc34)[C@@](C(=O)OC)(c3cc4c(cc3OC)N(C)[C@H]3[C@@](O)(C(=O)OC)[C@H](OC(C)=O)[C@]5(CC)C=CCN6CC[C@]43[C@@H]65)C2)C1`, the T/C by setting is: (dose: 0.38 mg/kg/injection, schedule: Q04DX005 (ip), vehicle: saline) 180 % of control; under setting [11], 293 % of control; under setting [12], 202 % of control and 401 % of control; under setting [13], 401 % of control and 160 % of control.
Turning to `O=NN(CCCl)C(=O)NC1CCCCC1`, the T/C (dose: 6.0 mg/kg/injection, schedule: Q01DX005 (sc), vehicle: other) was 256 % of control and the T/C (dose: 12.0 mg/kg/injection, schedule: Q01DX005 (sc), vehicle: other) was 256 % of control.
`CCC(O)CC1OC2(CCC1C)CC1OC(=O)/C=C\C(C)(O)C(O)C(C)C(O)C(OC3CC(OC)C(O)C(C)O3)C(O)C(C)(O)CCC/C=C/C3CC(C)COC3(O)CC(O2)C1C` (stereo not drawn): the T/C (dose: 0.25 mg/kg/injection, schedule: Q01DX009 (ip), vehicle: saline + alcohol) is 105 % of control; the T/C (dose: 0.5 mg/kg/injection, schedule: Q01DX009 (ip), vehicle: saline + alcohol) is 113 % of control; the T/C (dose: 1.0 mg/kg/injection, schedule: Q01DX009 (ip), vehicle: saline + alcohol) was 104 % of control; the T/C (dose: 2.0 mg/kg/injection, schedule: Q01DX009 (ip), vehicle: saline + alcohol) was 111 % of control.
For `COc1cccc2c1C(=O)c1c(O)c3c(c(O)c1C2=O)C[C@@](O)(C(=O)CO)C[C@@H]3OC1CC(N)C(O)C(C)O1` (stereo partly drawn), the T/C by setting is: (dose: 0.5 mg/kg/injection, schedule: Q04DX005 (ip), vehicle: saline) 196 % of control; under setting [11], 204 % of control; (dose: 1.0 mg/kg/injection, schedule: Q04DX005 (ip), vehicle: saline) 197 % of control; (dose: 1.5 mg/kg/injection, schedule: Q01DX007 (ip), vehicle: saline) 171 % of control; under setting [12], 277 % of control; (dose: 2.0 mg/kg/injection, schedule: Q04DX004 (ip), vehicle: saline) 160 % of control. In addition, the T/C was 401 % of control (dose: 2.0 mg/kg/injection, schedule: Q04DX005 (ip), vehicle: saline); 176 % of control (dose: 2.1 mg/kg/injection, schedule: Q01DX007 (ip), vehicle: saline); 216 % of control (dose: 3.0 mg/kg/injection, schedule: Q01DX007 (ip), vehicle: saline); 308 % of control under setting [13]; 152 % of control (dose: 3.4 mg/kg/injection, schedule: Q04DX003 (ip), vehicle: saline); 190 % of control (dose: 4.0 mg/kg/injection, schedule: Q04DX004 (ip), vehicle: saline). Also, the T/C is 208 % of control (dose: 4.0 mg/kg/injection, schedule: Q04DX005 (ip), vehicle: saline); 176 % of control (dose: 5.0 mg/kg/injection, schedule: Q04DX003 (ip), vehicle: saline); 308 % of control (dose: 6.0 mg/kg/injection, schedule: Q04DX005 (ip), vehicle: saline); 159 % of control (dose: 7.0 mg/kg/injection, schedule: Q01DX001 (ip), vehicle: saline); 120 % of control (dose: 7.5 mg/kg/injection, schedule: Q04DX003 (ip), vehicle: saline); 190 % of control (dose: 8.0 mg/kg/injection, schedule: Q04DX004 (ip), vehicle: saline). For the same compound, the T/C is, setting by setting: (dose: 10.0 mg/kg/injection, schedule: Q01DX001 (ip), vehicle: saline) 159 % of control; (dose: 15.0 mg/kg/injection, schedule: Q01DX001 (ip), vehicle: saline) 185 % of control.
For the compound `C=C1C(=O)OC2C(OC(C)=O)C1C(OC(=O)C(C)CC)[C@]1(C)C(=O)C=C[C@H]1[C@@H]2C` (stereo partly drawn), the T/C runs as follows: (dose: 1.25 mg/kg/injection, schedule: Q01DX009 (ip), vehicle: Klucel (hydroxypropylcellulose) (HPC)) 110 % of control; (dose: 2.5 mg/kg/injection, schedule: Q01DX009 (ip), vehicle: Klucel (hydroxypropylcellulose) (HPC)) 107 % of control; (dose: 5.0 mg/kg/injection, schedule: Q01DX009 (ip), vehicle: Klucel (hydroxypropylcellulose) (HPC)) 101 % of control; under setting [14], 110 % of control.
For the compound `COc1cc(NCc2ccc3nc(N)nc(N)c3c2C)cc(OC)c1OC`, the T/C under setting [14] is 173 % of control; the T/C (dose: 15.0 mg/kg/injection, schedule: Q04DX005 (ip), vehicle: Klucel (hydroxypropylcellulose) (HPC)) is 168 % of control; the T/C (dose: 20.0 mg/kg/injection, schedule: Q01DX009 (ip), vehicle: Klucel (hydroxypropylcellulose) (HPC)) was 173 % of control; the T/C (dose: 30.0 mg/kg/injection, schedule: Q04DX005 (ip), vehicle: Klucel (hydroxypropylcellulose) (HPC)) was 171 % of control; the T/C (dose: 60.0 mg/kg/injection, schedule: Q04DX005 (ip), vehicle: Klucel (hydroxypropylcellulose) (HPC)) was 206 % of control.
